Reference: ChEMBL document CHEMBL1201862, “PubChem BioAssay data set” (2004)
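The compound was tested at five concentrations on cells cultured in 96-well plates, with a 48-hour exposure period. The concentration for 50% growth inhibition is given as GI50.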 Activity calls are given as the source filed them. Rule as the data show it: active = GI50 up to about 1.1 µM and inactive = higher.

Tests used:
Experiment in all cases: NCI anticancer screen, dose series, 48 h
HL-60 = system: HL-60
ACHN = system: ACHN
HCC 2998 = system: HCC 2998
HOP-18 = system: HOP-18
UACC-62 = system: UACC-62
HCT-116 = system: HCT-116
KM12 = system: KM12
DMS-114 = system: DMS-114
IGROV-1 = system: IGROV-1
SF-539 = system: SF-539
OVCAR-8 = system: OVCAR-8
UACC-257 = system: UACC-257
SN12C = system: SN12C
DMS-273 = system: DMS-273
COLO 205 = system: COLO 205
TK-10 = system: TK-10
CAKI-1 = system: CAKI-1
M14 = system: M14
UO-31 = system: UO-31
SNB-75 = system: SNB-75
LXFL 529 = system: LXFL 529
NCI-H23 = system: NCI-H23
DLD-1 = system: DLD-1
HOP-92 = system: HOP-92
LOX IMVI = system: LOX IMVI
NCI-H460 = system: NCI-H460
HOP-62 = system: HOP-62
A549 = system: A549
786-0 = system: 786-0
XF498 = system: XF498
EKVX = system: EKVX
SF-268 = system: SF-268
RPMI-8226 = system: RPMI-8226
HT-29 = system: HT-29
HCT-15 = system: HCT-15
SK-MEL-28 = system: SK-MEL-28
SNB-78 = system: SNB-78
MOLT-4 = system: MOLT-4
SNB-19 = system: SNB-19
SR = system: SR
OVCAR-5 = system: OVCAR-5
OVCAR-3 = system: OVCAR-3
NCI-H226 = system: NCI-H226
A498 = system: A498
SW-620 = system: SW-620
SK-MEL-2 = system: SK-MEL-2
SK-MEL-5 = system: SK-MEL-5
Malme-3M = system: Malme-3M
SK-OV-3 = system: SK-OV-3
K562 = system: K562
NCI-H522 = system: NCI-H522
KM-20L2 = system: KM-20L2
RXF 631 = system: RXF 631
CCRF-CEM = system: CCRF-CEM
OVCAR-4 = system: OVCAR-4
SF-295 = system: SF-295
U-251 = system: U-251
M19-MEL = system: M19-MEL

SMILES: CO/N=C/c1cc(OC)c(OC)c(OC)c1
- GI50 (HL-60): > 100 µM (inactive)
- GI50 (ACHN): > 100 µM (inactive)
- GI50 (HCC 2998): > 100 µM (inactive)
- GI50 (HOP-18): > 100 µM (inactive)
- GI50 (UACC-62): > 100 µM (inactive)
- GI50 (HCT-116): > 100 µM (inactive)
- GI50 (KM12): > 100 µM (inactive)
- GI50 (DMS-114): > 100 µM (inactive)
- GI50 (IGROV-1): > 100 µM (inactive)
- GI50 (SF-539): > 100 µM (inactive)
- GI50 (OVCAR-8): > 100 µM (inactive)
- GI50 (UACC-257): > 100 µM (inactive)
- GI50 (SN12C): > 100 µM (inactive)
- GI50 (DMS-273): > 100 µM (inactive)
- GI50 (COLO 205): > 100 µM (inactive)
- GI50 (TK-10): > 100 µM (inactive)
- GI50 (CAKI-1): > 100 µM (inactive)
- GI50 (M14): > 100 µM (inactive)
- GI50 (UO-31): > 100 µM (inactive)
- GI50 (SNB-75): > 100 µM (inactive)
- GI50 (LXFL 529): > 100 µM (inactive)
- GI50 (NCI-H23): > 100 µM (inactive)
- GI50 (DLD-1): > 100 µM (inactive)
- GI50 (HOP-92): > 100 µM (inactive)
- GI50 (LOX IMVI): > 100 µM (inactive)
- GI50 (NCI-H460): > 100 µM (inactive)
- GI50 (HOP-62): > 100 µM (inactive)
- GI50 (A549): > 100 µM (inactive)
- GI50 (786-0): > 100 µM (inactive)
- GI50 (XF498): > 100 µM (inactive)
- GI50 (EKVX): > 100 µM (inactive)
- GI50 (SF-268): > 100 µM (inactive)
- GI50 (RPMI-8226): > 100 µM (inactive)
- GI50 (HT-29): > 100 µM (inactive)
- GI50 (HCT-15): > 100 µM
- GI50 (SK-MEL-28): > 100 µM (inactive)
- GI50 (SNB-78): > 100 µM (inactive)
- GI50 (MOLT-4): > 100 µM (inactive)
- GI50 (SNB-19): > 100 µM (inactive)
- GI50 (SR): > 100 µM (inactive)
- GI50 (OVCAR-5): > 100 µM (inactive)
- GI50 (OVCAR-3): > 100 µM (inactive)
- GI50 (NCI-H226): > 100 µM (inactive)
- GI50 (A498): > 100 µM (inactive)
- GI50 (SW-620): > 100 µM (inactive)
- GI50 (SK-MEL-2): > 100 µM (inactive)
- GI50 (SK-MEL-5): > 100 µM (inactive)
- GI50 (Malme-3M): > 100 µM (inactive)
- GI50 (SK-OV-3): > 100 µM (inactive)
- GI50 (K562): > 100 µM (inactive)
- GI50 (NCI-H522): > 100 µM (inactive)
- GI50 (KM-20L2): > 100 µM (inactive)
- GI50 (RXF 631): > 100 µM (inactive)
- GI50 (CCRF-CEM): > 100 µM (inactive)
- GI50 (OVCAR-4): > 100 µM (inactive)
- GI50 (SF-295): > 100 µM (inactive)
- GI50 (U-251): > 100 µM (inactive)
- GI50 (M19-MEL): > 100 µM (inactive)
